From patent US20120202690A1, “HERBICIDAL COMPOUNDS” (SYNGENTA LIMITED, priority 2009, published 2012)

Assays:
Assay type in all cases: in vivo
[1] = test system: Alopecurus myosuroides (ALOMY); assay: Pre-emergence biological efficacy, glasshouse, 1000 g/ha, evaluated after 13 days (100=total damage to plant; 0=no damage to plant); settings: Alopecurus myosuroides, 312 h, rate 1,000 g/ha, read-out: Percentage damage caused to weed species, pre-emergence, ALOMY
In short: (§1)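 Sowing: standard soil, pots. Growth: glasshouse, 24/16° C. day/night, 14 hours light, 65% humidity. Watering: twice daily.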

[2] = test system: Amaranthus retroflexus (AMARE); assay: as above; settings: Amaranthus retroflexus, 312 h, rate 1,000 g/ha, read-out: Percentage damage caused to weed species, pre-emergence, AMARE
In short: as §1

[3] = test system: Echinochloa crus-galli (ECHCG); assay: as above; settings: Echinochloa crus-galli, 312 h, rate 1,000 g/ha, read-out: Percentage damage caused to weed species, pre-emergence, ECHCG
In short: as §1

[4] = test system: Ipomoea hederaceae (IPOHE); assay: as above; settings: Ipomoea, 312 h, rate 1,000 g/ha, read-out: Percentage damage caused to weed species, pre-emergence, IPOHE
In short: as §1

Setaria faberi (SETFA) [5] = assay: as above; settings: Setaria faberi, 312 h, rate 1,000 g/ha, read-out: Percentage damage caused to weed species, pre-emergence, SETFA
In short: as §1

Solanum nigrum (SOLNI) [6] = assay: as above; settings: Solanum nigrum, 312 h, rate 1,000 g/ha, read-out: Percentage damage caused to weed species, pre-emergence, SOLNI
In short: as §1

[7] = test system: Alopecurus myosuroides (ALOMY); assay: Post-emergence biological efficacy, glasshouse, 500 or 1000 g/ha, evaluated after 13 days (100=total damage to plant; 0=no damage to plant); settings: Alopecurus myosuroides, 312 h, rate 1,000 g/ha, read-out: Percentage damage caused to weed species, post-emergence, ALOMY
In short: (§2)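 Standard soil, potted from seed; post-emergence treatment; glasshouse 24/16° C. (day/night), 14 h light, 65% humidity; watering twice daily.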

[8] = test system: Amaranthus retroflexus (AMARE); assay: as above; settings: Amaranthus retroflexus, 312 h, rate 1,000 g/ha, read-out: Percentage damage caused to weed species, post-emergence, AMARE
In short: as §2

[9] = test system: Echinochloa crusgaffi (ECHCG); assay: as above; settings: Echinochloa, 312 h, rate 1,000 g/ha, read-out: Percentage damage caused to weed species, post-emergence, ECHCG
In short: as §2

[10] = test system: Ipomoea hederaceae (IPOHE); assay: as above; settings: Ipomoea, 312 h, rate 1,000 g/ha, read-out: Percentage damage caused to weed species, post-emergence, IPOHE
In short: as §2

Setaria faberi (SETFA) [11] = assay: as above; settings: Setaria faberi, 312 h, rate 1,000 g/ha, read-out: Percentage damage caused to weed species, post-emergence, SETFA
In short: as §2

Solanum nigrum (SOLNI) [12] = assay: as above; settings: Solanum nigrum, 312 h, rate 1,000 g/ha, read-out: Percentage damage caused to weed species, post-emergence, SOLNI
In short: as §2

SMILES	pest or weed control at 1000 g/ha [1]	pest or weed control at 1000 g/ha [2]	pest or weed control at 1000 g/ha [3]	pest or weed control at 1000 g/ha [4]	pest or weed control at 1000 g/ha (Setaria faberi (SETFA) [5])	pest or weed control at 1000 g/ha (Solanum nigrum (SOLNI) [6])	pest or weed control at 1000 g/ha [7]	pest or weed control at 1000 g/ha [8]	pest or weed control at 1000 g/ha [9]	pest or weed control at 1000 g/ha [10]	pest or weed control at 1000 g/ha (Setaria faberi (SETFA) [11])	pest or weed control at 1000 g/ha (Solanum nigrum (SOLNI) [12])
O=C(O)c1nc(-c2ccc(Cl)c(F)c2)nc2c1ccn2Cc1ncccc1Cl [Compound 14-17, 4-Carboxy-2-(4-chloro-3-fluorophenyl)-7-(3-chloropyrid-2-yl-methyl)-7H-pyrrolo[2,3-d]pyrimidine]	0%	0%	0%	0%	0%	0%	0%	0%	0%	10%	0%	40%
COC(=O)c1nc(-c2ccc(Cl)c(OC)c2F)nc2c1Nc1ccccc1N2 [Compound 119-168, 2-(4-chloro-2-fluoro-3-methoxyphenyl)-4-methoxycarbonyl-5,10-dihydro-benzo[g]pteridine]	0%	0%	0%	0%	0%	0%	0%	10%	0%	40%	0%	30%
O=C(O)c1nc(-c2ccc(Cl)c(F)c2)nc2c1ccn2Cc1ccccc1 [Compound 6-17, 4-Carboxy-2-(4-chloro-3-fluorophenyl)-7-phenylmethyl-7H-pyrrolo[2,3-d]pyrimidine]	0%	0%	0%	0%	0%	0%	0%	20%	0%	0%	0%	40%
COc1c(Cl)ccc(-c2cc3[nH]cc(C)c3c(C(=O)OCC3CCCO3)n2)c1F (stereo not drawn) [Compound 22-88, 6-(4-Chloro-2-fluoro-3-methoxyphenyl)-3-methyl-4-(tetrahydrofuran-2-yl-methoxycarbonyl)-1H-pyrrolo[3,2-c]pyridine]	10%	100%	0%	50%	10%	100%	30%	80%	20%	60%	40%	90%
COC(=O)c1nc(-c2ccc(Cl)c(N(C)C)c2F)nc2[nH]c(C)cc12 [Compound 1-118, 2-(4-chloro-3-dimethylamino-2-fluorophenyl)-4-methoxycarbonyl-6-methyl-7H-pyrrolo[2,3-d]pyrimidine]	0%	40%	10%	40%	20%	70%	10%	100%	50%	50%	70%	80%
COc1c(Cl)ccc(-c2nc(C(=O)O)c3cc(C)n(Cc4ccccc4[N+](=O)[O-])c3n2)c1F [Compound 8-65, 4-Carboxy-2-(4-chloro-2-fluoro-3-methoxyphenyl)-6-methyl-7-(2-nitrophenyl-methyl)-7H-pyrrolo[2,3-d]pyrimidine]	0%	0%	0%	0%	0%	0%	0%	0%	0%	10%	20%	10%
COC(=O)c1nc(-c2ccc(Cl)c(OC)c2F)nc2c1cc(C)n2Cc1ccco1 [Compound 11-66, 2-(4-Chloro-2-fluoro-3-methoxyphenyl)-7-(2-furanylmethyl)-4-methoxycarbonyl-6-methyl-7H-pyrrolo[2,3-d]pyrimidine]	0%	0%	0%	0%	0%	0%	10%	20%	20%	30%	10%	50%
COc1c(Cl)ccc(-c2nc(C(=O)O)c3c(n2)N(C(C)C)CCN3C(C)C)c1F [Compound 93-165, 4-Carboxy-2-(4-chloro-2-fluoro-3-methoxyphenyl)-5,8-diisopropyl-5,6,7,8-tetrahydropteridine]	0%	0%	0%	10%	0%	0%	10%	20%	20%	20%	30%	30%
COC(=O)c1nc(-c2ccc(Cl)c(OC)c2F)nc2c1OCCN2C [Compound 106-74, 2-(4-Chloro-2-fluoro-3-methoxyphenyl)-4-methoxycarbonyl-8-methyl-7,8-dihydro-6H-pyrimido[5,4-b][1,4]oxazine]	0%	0%	0%	0%	0%	0%	0%	0%	0%	0%	0%	0%
COC(=O)c1nc(C2CC2)nc2[nH]c(C)cc12 [Compound 1-6, 2-cyclopropyl-4-methoxycarbonyl-6-methyl-7H-pyrrolo[2,3-d]pyrimidine]	0%	0%	0%	0%	0%	0%	0%	0%	0%	0%	0%	0%
